# Reference: PMC7468108 (Communications Biology, 2020)
# How the values were obtained:
# [1] = XTT assay, cytotoxicity of the hybrid molecules towards SH-SY5Y; format: cell-based; conditions: human, SH-SY5Y cells
# Description: To this end, we first tested whether the hybrid molecules carried any cytotoxicity themselves. […] No considerable toxicity (≥95% viability) was caused by the hybrid molecules towards either cell line, even at the highest concentration of 250 µM (Fig. 8).
# The SH-SY5Y and HEK-293 cell lines (2 × 10^5 cells/mL) were cultured in 96-well tissue microplates (100 µL/well) and allowed to adhere overnight at 37 °C. The conjugate molecules were dissolved in DMEM:nutrient mixture F12 (Ham’s) (1:1) (Biological Industries, Israel) at different concentrations. The negative control was prepared as medium without hybrid molecules and treated in the same manner. 100 µL of medium with or without hybrid molecules were added to each well in triplicate. Following incubation for 24 h at 37 °C, cell viability was evaluated using the 2,3-bis(2-methoxy-4-nitro-5-sulfophenyl)-2H-tetrazolium-5-carboxanilide (XTT) cell proliferation assay kit (Biological Industries, Israel) according to the manufacturer’s instructions. Briefly, 100 µL of activation reagent was added to 5 mL of XTT reagent, followed by the addition of 50 µL of activated-XTT solution to each well. After 2 h incubation at 37 °C, color intensity was measured using an ELISA microplate reader at 450 nm and 630 nm. Results are presented as mean and mean standard error. Each experiment was repeated minimum three times.
# [2] = target: T1, pre-formed fibrils of Aβ42 (Homo sapiens, UniProt P05067); assay: CD spectroscopy of pre-formed Aβ42 fibrils with the tested molecules; conditions: Aβ42 (10 µM) : molecule 1:5
# T1 construct: purchased rPeptide (USA)
# Description: For efficient treatment of proteinopathies it may be advantageous to disassemble amyloid aggregates/fibrils which are usually already present at the time of diagnosis[75]–[77]. […] Then, various doses of the hybrid molecules were added to the pre-formed fibrils and the mixtures were incubated for additional 10 h. The process of disaggregation was monitored by ThT-binding assay, CD spectroscopy, TEM and Congo red staining (Fig. 5).
# The blank was subtracted from the acquired CD spectra. For the CD study in the presence of the tryptophan-galacosylamine molecules, the spectra of hybrid molecules were also recorded separately and subtracted from the respective sample spectra. The normalized data were plotted using Origin pro 2015 software.
# T1 sequence (P05067 672-713 limits assumed): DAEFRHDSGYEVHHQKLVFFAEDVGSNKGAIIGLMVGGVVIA
structure (smiles),measurement,setting,value
NC(Cc1c[nH]c2ccccc12)C(=O)NC(Cc1c[nH]c2ccccc12)C(=O)O (stereo not shown) [WW],"viability at 24 h, 0.2 µM",[1]; 0.2µM,98.8%
same,"viability at 24 h, 1 µM",[1]; 1 µM,100%
same,"viability at 24 h, 10 µM",[1]; 10 µM,98.4%
same,"viability at 24 h, 50 µM",[1]; 50 µM,90.9%
same,"viability at 24 h, 250 µM",[1],88.4%
same,"viability at 24 h, 250 µM","[1]; SH-SY5Y, 24 h",~88%
same,Normalized CD spectra,[2]; wave length 190.00,-73553.54
same,Normalized CD spectra,[2]; wave length 190.50,-15766.44
same,Normalized CD spectra,[2]; wave length 191.00,35958.05
same,Normalized CD spectra,[2]; wave length 191.50,81619.94
same,Normalized CD spectra,[2]; wave length 192.00,121219.23
same,Normalized CD spectra,[2]; wave length 192.50,154755.92
same,Normalized CD spectra,[2]; wave length 193.00,182230.00
same,Normalized CD spectra,[2]; wave length 193.50,203641.48
same,Normalized CD spectra,[2]; wave length 194.00,218990.36
same,Normalized CD spectra,[2]; wave length 194.50,228276.63
same,Normalized CD spectra,[2]; wave length 195.00,231500.30
same,Normalized CD spectra,[2]; wave length 195.50,225800.71
same,Normalized CD spectra,[2]; wave length 196.00,212602.53
same,Normalized CD spectra,[2]; wave length 196.50,192673.83
same,Normalized CD spectra,[2]; wave length 197.00,167389.33
same,Normalized CD spectra,[2]; wave length 197.50,138095.62
same,Normalized CD spectra,[2]; wave length 198.00,105620.63
same,Normalized CD spectra,[2]; wave length 198.50,71268.15
same,Normalized CD spectra,[2]; wave length 199.00,34612.79
same,Normalized CD spectra,[2]; wave length 199.50,-3059.42
same,Normalized CD spectra,[2]; wave length 200.00,-41012.41
same,Normalized CD spectra,[2]; wave length 200.50,-77900.86
same,Normalized CD spectra,[2]; wave length 201.00,-113482.60
same,Normalized CD spectra,[2]; wave length 201.50,-149046.90
same,Normalized CD spectra,[2]; wave length 202.00,-184972.48
same,Normalized CD spectra,[2]; wave length 202.50,-219485.50
same,Normalized CD spectra,[2]; wave length 203.00,-252839.40
same,Normalized CD spectra,[2]; wave length 203.50,-284772.39
same,Normalized CD spectra,[2]; wave length 204.00,-314917.56
same,Normalized CD spectra,[2]; wave length 204.50,-342821.04
same,Normalized CD spectra,[2]; wave length 205.00,-369216.74
same,Normalized CD spectra,[2]; wave length 205.50,-393550.37
same,Normalized CD spectra,[2]; wave length 206.00,-417348.83
same,Normalized CD spectra,[2]; wave length 206.50,-438915.06
same,Normalized CD spectra,[2]; wave length 207.00,-457557.09
same,Normalized CD spectra,[2]; wave length 207.50,-473195.60
same,Normalized CD spectra,[2]; wave length 208.00,-486009.60
same,Normalized CD spectra,[2]; wave length 208.50,-496658.21
same,Normalized CD spectra,[2]; wave length 209.00,-506978.42
same,Normalized CD spectra,[2]; wave length 209.50,-515749.12
same,Normalized CD spectra,[2]; wave length 210.00,-522740.26
same,Normalized CD spectra,[2]; wave length 210.50,-528398.60
same,Normalized CD spectra,[2]; wave length 211.00,-534227.02
same,Normalized CD spectra,[2]; wave length 211.50,-539337.45
same,Normalized CD spectra,[2]; wave length 212.00,-544717.07
same,Normalized CD spectra,[2]; wave length 212.50,-549064.94
same,Normalized CD spectra,[2]; wave length 213.00,-552893.06
same,Normalized CD spectra,[2]; wave length 232.00,-158822.48
same,Normalized CD spectra,[2]; wave length 232.50,-145896.86
same,Normalized CD spectra,[2]; wave length 233.00,-133288.90
same,Normalized CD spectra,[2]; wave length 233.50,-121276.73
same,Normalized CD spectra,[2]; wave length 234.00,-108420.01
same,Normalized CD spectra,[2]; wave length 234.50,-94402.20
same,Normalized CD spectra,[2]; wave length 235.00,-80851.94
same,Normalized CD spectra,[2]; wave length 235.50,-67553.80
same,Normalized CD spectra,[2]; wave length 236.00,-53046.10
same,Normalized CD spectra,[2]; wave length 236.50,-38359.94
same,Normalized CD spectra,[2]; wave length 237.00,-24169.94
same,Normalized CD spectra,[2]; wave length 237.50,-9295.33
same,Normalized CD spectra,[2]; wave length 238.00,4979.26
same,Normalized CD spectra,[2]; wave length 238.50,18805.26
same,Normalized CD spectra,[2]; wave length 239.00,32522.94
same,Normalized CD spectra,[2]; wave length 239.50,44912.46
same,Normalized CD spectra,[2]; wave length 240.00,56635.42
same,Normalized CD spectra,[2]; wave length 240.50,67013.51
same,Normalized CD spectra,[2]; wave length 241.00,74841.22
same,Normalized CD spectra,[2]; wave length 241.50,81258.78
same,Normalized CD spectra,[2]; wave length 242.00,86276.81
same,Normalized CD spectra,[2]; wave length 242.50,90384.02
same,Normalized CD spectra,[2]; wave length 243.00,92798.03
same,Normalized CD spectra,[2]; wave length 243.50,93594.35
same,Normalized CD spectra,[2]; wave length 244.00,93999.17
same,Normalized CD spectra,[2]; wave length 244.50,92992.13
same,Normalized CD spectra,[2]; wave length 245.00,90422.16
same,Normalized CD spectra,[2]; wave length 245.50,86663.60
same,Normalized CD spectra,[2]; wave length 246.00,82929.71
same,Normalized CD spectra,[2]; wave length 246.50,77838.15
same,Normalized CD spectra,[2]; wave length 247.00,72115.03
same,Normalized CD spectra,[2]; wave length 247.50,67454.01
same,Normalized CD spectra,[2]; wave length 248.00,62170.09
same,Normalized CD spectra,[2]; wave length 248.50,58159.55
same,Normalized CD spectra,[2]; wave length 249.00,54507.86
same,Normalized CD spectra,[2]; wave length 249.50,50774.14
same,Normalized CD spectra,[2]; wave length 250.00,48265.73
same,Normalized CD spectra,[2]; wave length 250.50,46578.32
same,Normalized CD spectra,[2]; wave length 251.00,45531.49
same,Normalized CD spectra,[2]; wave length 251.50,45968.11
same,Normalized CD spectra,[2]; wave length 252.00,46977.38
same,Normalized CD spectra,[2]; wave length 252.50,48862.26
same,Normalized CD spectra,[2]; wave length 253.00,50826.53
same,Normalized CD spectra,[2]; wave length 253.50,52698.23
same,Normalized CD spectra,[2]; wave length 254.00,54591.66
same,Normalized CD spectra,[2]; wave length 254.50,55574.45
same,Normalized CD spectra,[2]; wave length 255.00,55730.02
same,Normalized CD spectra,[2]; wave length 255.50,53034.53
same,Normalized CD spectra,[2]; wave length 256.00,49400.95
same,Normalized CD spectra,[2]; wave length 256.50,44829.26
same,Normalized CD spectra,[2]; wave length 257.00,39319.47
same,Normalized CD spectra,[2]; wave length 257.50,32871.59
same,Normalized CD spectra,[2]; wave length 258.00,25485.60
